# According to US10071975B2, “Macrocyclic amidinourea derivatives, methods of preparation and uses thereof as chitinase inhibitors” (CYGNET BIOSCIENCES B.V., priority 2013, dated 2018):
# What was measured:
# C. krusei = test: Antimicrobial susceptibility testing (microdilution MIC90), C. krusei strains; format: cell-based, Candida krusei; details: Pichia kudriavzevii; C. krusei (13 strains tested); 24 h; read-out: MIC90
# Protocol: (§1) Sterile plastic microtitration plates containing flat-bottomed wells were used. The plates contained serial dilution of the antifungal agents with a volume of assay medium of 100 μL/well. Two drug-free medium wells were used as sterility and growth controls. The trays were inoculated with 100 μL/well of the final inoculum, with the exception of sterility control wells. […] The microtitration plates were incubated at 37° C. for 24 h. The minimal inhibitory concentrations (MICs) were determined at 24 h both visually and spectrophotometrically measuring the turbidity at 595 nm with a Varian model 1475 spectrophotometer. Results of biological tests are shown in Table 2, biological data are reported as MIC90 that is the minimum concentration required to inhibit the growth of at least the 90% of the strains tested for each species.
# [1] = test system: chitinase enzyme extracted from Trichoderma viride; test: Chitinase inhibition assay (NP-GlcNAc substrate); format: biochemical
# Protocol: Chitinase inhibition assays were conducted against an example of the GH18 family of chitinases, i.e the chitinase enzyme extracted from Trichoderma viride. This enzyme has an high degree of identity compared to chitinase 4 of Candida albicans, and is commercially available from Sigma-Aldrich (catalogue ID: C8241).
# The substrate used was the NP-GlcNAc (Sigma-Aldrich, catalogue ID: N9376) dissolved in MES 50 mM at pH6.0; the final concentration was 250 μM. The enzyme was resuspended at 0.11 mg/ml in MES 50 mM at pH 6.0, with a final concentration for the assay of 73 nM diluting with MES 50 mM and BSA 20 μg/ml at pH 6.0. A stock solution of the inhibitors was prepared at 50 mM in DMSO 100%.
# The mixture with the inhibitor at various concentrations and the enzyme was prepared directly into the reading plate and left to incubate at room temperature for 20 minutes or three hours. At the end of the incubation times, the substrate was added and the reading was conducted by recording the values up to a maximum time of 10 minutes. The substrate concentration was measured by reading UV absorption at 300 nm (εM^300: 11100), while, the product of hydrolysis were measured at 400 nm (ΔεM^400: 2120). Both IC50 and Ki can be calculated.
# [2] = test system: C. albicans fluconazole resistant strains; test: microbe, parasite or virus in culture; format: cell-based; details: Candida albicans, 24 h
# C. albicans = test: Antimicrobial susceptibility testing (microdilution MIC90), C. albicans strains; format: cell-based; details: Candida albicans; C. albicans (22 strains tested); 24 h, visually and spectrophotometrically
# Protocol: as §1
# C. tropicalis = test: Antimicrobial susceptibility testing (microdilution MIC90), C. tropicalis strains; format: cell-based; details: Candida tropicalis; C. tropicalis (11 strains tested); 24 h
# Protocol: as §1
# C. kefyr = test: Antimicrobial susceptibility testing (microdilution MIC90), C. kefyr strains; format: cell-based, Candida kefyr; details: Kluyveromyces marxianus; C. kefyr (10 strains tested); 24 h
# Protocol: as §1
# [3] = test system: C. glabrata fluconazole resistant strains; test: microbe, parasite or virus in culture; format: cell-based, Candida glabrata; details: Nakaseomyces glabratus, 24 h
# C. glabrata = test: Antimicrobial susceptibility testing (microdilution MIC90), C. glabrata strains; format: cell-based, Candida glabrata; details: Nakaseomyces glabratus; C. glabrata (26 strains tested); 24 h
# Protocol: as §1
# C. parapsilosis = test: Antimicrobial susceptibility testing (microdilution MIC90), C. parapsilosis strains; format: cell-based, Candida parapsilosis; details: Lodderomyces parapsilosis; C. parapsilosis (24 strains tested); 24 h
# Protocol: as §1
# C. guilliermondii = test: Antimicrobial susceptibility testing (microdilution MIC90), C. guilliermondii strains; format: cell-based, Candida guilliermondii; details: Meyerozyma guilliermondii; C. guilliermondii (10 strains tested); 24 h
# Protocol: as §1
# [4] = Enz.-inhib. incubation time 20 min
# [5] = Enz.-inhib. incubation time 3 h
# [6] = strain DSY284, ERG11 Mutation, mean of three measurements
# [7] = strain DSY289, ERG11 Mutation (2)
# [8] = strain DSY291, ERG11 Mutation (2)
# [9] = strain DSY292, ERG11 Mutation (3)
# [10] = strain DSY751, ↑MDR1, ERG11 Mutation
smiles,measurement,setting,value
"C/C=C/CNC(=N)NCCCCCCCCN1CCCCCOc2ccccc2CNC(=N)NC1=O [Example 17, 1-[(E)-but-2-enyl]-3-[8-(4-imino-6-oxo-13-oxa-3,5,7-triazabicyclo[12.4.0]octadeca-1(14),15,17-trien-7-yl)octyl]guanidine]",MIC90,C. krusei,8 µg/mL
same,inhibition of the chitinase enzyme,[1],active inhibitor
same,IC50,[1]; [4],151 µM
same,Ki,[1]; [4],48.8 µM
same,IC50,[1]; [5],55 µM
same,Ki,[1]; [5],17.8 µM
same,MIC,[2]; [6],2 µg/mL
same,MIC,[2]; [7],2 µg/mL
same,MIC,[2]; [8],4 µg/mL
same,MIC,[2]; [9],4 µg/mL
same,MIC,"[2]; strain DSY296, ERG11 Mutation",4 µg/mL
same,MIC,"[2]; strain DSY348, ERG11 Mutation",2 µg/mL
same,MIC,"[2]; strain DSY732, ↑CDR1-CDR2",2 µg/mL
same,MIC,"[2]; strain DSY735, ↑CDR1-CDR2",2 µg/mL
same,MIC,"[2]; strain DSY750, ↑MDR1",4 µg/mL
same,MIC,[2]; [10],4 µg/mL
same,MIC,"[2]; strain DSY775, ERG11 Mutation",4 µg/mL
same,MIC,"[2]; strain DSY2323, ↑CDR2-MDR1",4 µg/mL
same,MIC90,C. albicans,4 µg/mL
same,MIC90,C. tropicalis,2 µg/mL
same,MIC90,C. kefyr,4 µg/mL
same,MIC,"[3]; strain DSY530, ↑CDR1",8 µg/mL
same,MIC,"[3]; strain DSY754, ↑CDR1",16 µg/mL
same,MIC,"[3]; strain DSY756, ↑CDR1-CDR2-SNQ2",8 µg/mL
same,MIC,"[3]; strain DSY2254, ↑CDR1-CDR2",16 µg/mL
same,MIC,"[3]; strain DSY2271, ↑CDR2",8 µg/mL
same,MIC90,C. glabrata,8 µg/mL
same,MIC90,C. parapsilosis,2 µg/mL
same,MIC90,C. guilliermondii,2 µg/mL
"C/C=C/CNC(=N)NCCCCCCCCN1CCCCCOC(=O)CCNC(=N)NC1=O [Example 19, 1-[(E)-but-2-enyl]-3-[8-(6-imino-2,8-dioxo-1-oxa-5,7,9-triazacyclotetradec-9-yl)octyl]guanidine]",MIC90,C. krusei,64 µg/mL
same,MIC,[2]; [6],16 µg/mL
same,MIC,[2]; [7],8 µg/mL
same,MIC,[2]; [8],8 µg/mL
same,MIC,[2]; [9],16 µg/mL
same,MIC,"[2]; strain DSY296, ERG11 Mutation",16 µg/mL
same,MIC,"[2]; strain DSY348, ERG11 Mutation",8 µg/mL
same,MIC,"[2]; strain DSY732, ↑CDR1-CDR2",8 µg/mL
same,MIC,"[2]; strain DSY735, ↑CDR1-CDR2",8 µg/mL
same,MIC,"[2]; strain DSY750, ↑MDR1",16 µg/mL
same,MIC,[2]; [10],16 µg/mL
same,MIC,"[2]; strain DSY775, ERG11 Mutation",16 µg/mL
same,MIC,"[2]; strain DSY2323, ↑CDR2-MDR1",16 µg/mL
same,MIC90,C. albicans,32 µg/mL
same,MIC90,C. tropicalis,32 µg/mL
same,MIC90,C. kefyr,32 µg/mL
same,MIC,"[3]; strain DSY530, ↑CDR1",64 µg/mL
same,MIC,"[3]; strain DSY754, ↑CDR1",64 µg/mL
same,MIC,"[3]; strain DSY756, ↑CDR1-CDR2-SNQ2",128 µg/mL
same,MIC,"[3]; strain DSY2254, ↑CDR1-CDR2",128 µg/mL
same,MIC,"[3]; strain DSY2271, ↑CDR2",64 µg/mL
same,MIC90,C. glabrata,64 µg/mL
same,MIC90,C. parapsilosis,32 µg/mL
same,MIC90,C. guilliermondii,32 µg/mL
